Measurements reported in patent US20220389010A1, “Novel Triazolopyridine Derivatives and Pharmaceutical Composition Comprising Same” (Daewoong Pharmaceutical Co., Ltd., priority 2019, published 2022).

Each compound was assayed against T1, Recombinant purified human JAK3 (Homo sapiens, UniProt P52333) (assay: JAK3 inhibitory activity test (ADP-Glo kinase assay)). Details: ATP 5 uM, 1 hour incubation at 30° C.
T1 construct: purchased Promega V9441
T1 sequence (P52333 1-1124): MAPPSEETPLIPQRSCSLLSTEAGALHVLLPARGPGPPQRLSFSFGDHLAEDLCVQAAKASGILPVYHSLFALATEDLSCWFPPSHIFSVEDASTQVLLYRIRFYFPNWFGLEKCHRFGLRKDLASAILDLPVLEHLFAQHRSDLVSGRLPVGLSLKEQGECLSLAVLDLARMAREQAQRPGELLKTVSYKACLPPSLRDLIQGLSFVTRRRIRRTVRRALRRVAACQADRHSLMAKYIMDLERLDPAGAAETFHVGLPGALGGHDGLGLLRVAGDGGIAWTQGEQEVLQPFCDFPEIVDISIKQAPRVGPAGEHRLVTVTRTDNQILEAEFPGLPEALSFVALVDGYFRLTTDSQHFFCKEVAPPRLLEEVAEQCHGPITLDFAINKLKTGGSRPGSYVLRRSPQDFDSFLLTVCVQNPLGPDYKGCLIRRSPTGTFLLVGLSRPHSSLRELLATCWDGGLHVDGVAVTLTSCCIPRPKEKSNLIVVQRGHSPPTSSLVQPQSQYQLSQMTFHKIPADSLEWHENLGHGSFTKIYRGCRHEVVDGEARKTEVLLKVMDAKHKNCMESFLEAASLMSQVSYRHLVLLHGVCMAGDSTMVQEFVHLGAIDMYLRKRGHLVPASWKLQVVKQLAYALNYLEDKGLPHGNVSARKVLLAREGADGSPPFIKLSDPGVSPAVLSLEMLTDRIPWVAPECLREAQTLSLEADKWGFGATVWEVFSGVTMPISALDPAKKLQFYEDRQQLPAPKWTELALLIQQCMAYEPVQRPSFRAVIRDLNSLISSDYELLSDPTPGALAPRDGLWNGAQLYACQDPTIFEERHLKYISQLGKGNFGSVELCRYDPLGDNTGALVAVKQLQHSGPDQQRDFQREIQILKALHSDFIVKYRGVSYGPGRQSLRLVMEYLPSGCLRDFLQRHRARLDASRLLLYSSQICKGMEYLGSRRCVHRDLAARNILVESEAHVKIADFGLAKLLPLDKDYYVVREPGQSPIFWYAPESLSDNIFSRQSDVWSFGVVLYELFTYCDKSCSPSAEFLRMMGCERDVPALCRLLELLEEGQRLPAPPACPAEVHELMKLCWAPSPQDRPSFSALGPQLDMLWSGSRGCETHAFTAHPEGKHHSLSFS
Assay type: biochemical
Method: The inhibitory activities against JAK3 were measured for the compounds prepared in the above Examples through in vitro analysis on the ADP Glow (Glo) platform.
Specifically, the inhibitory activities against JAK3 were measured using a JAK3 kinase assay kit (Promega, V9441), which was purchased from Promega. Recombinant purified human JAK3 was diluted with 1× kinase reaction buffer (JAK3: 40 mM Tris-CI, pH 7.5, 20 mM MgCl2, 0.1 mg/mL BSA and 50 uM OTT and added to a 96 well plate (JAK3: final concentration of 4 ng per reaction). The compounds prepared in the previous Examples were treated so as to be finally a 1% DMSO aqueous solution, and a substrate cocktail containing ATP (JAK3: final concentration of 5 uM) and 0.2 ug/ul of Poly(Glu4, Tyri) peptide (JAK3 final concentration) in the total 25 uL reactants was added to a 96-well plate to initiate enzymatic reaction. After incubation (30° C.) for 1 hour, equivalent volume (25 uL per reaction) of ADP Glo was added and incubated (30° C.) for 40 minutes at room temperature. Then, a kinase detection reagent (50 uL per reaction) was added and incubated (30° C.) for 30 minutes at room temperature. The kinase activity was measured by chemiluminescence according to the instructions of ADP Glo kinase assay kit, and the inhibitory activity of the compounds according to the present invention was calculated. For the analysis of the results of each compound, Microsoft Excel was used, and IC50 values were calculated by SigmaPlot software.
`C=CC(=O)Nc1cccc(Oc2cccc3nc(Nc4cccc(-n5nnnc5C)c4)nn23)c1` [Example 7, N-(3-(2-(3-(5-methyl-1H-tetrazol-1-yl)phenylamino)-[1,2,4]triazolo[1,5-a]pyridin-5-yloxy)phenyl)acrylamide] gave an IC50 of 1.2 nM. In the case of `C=CC(=O)Nc1cccc(Oc2cccc3nc(Nc4ccc(N5CCOCC5)nc4)nn23)c1` [Example 21, N-(3-(2-(6-morpholinopyridin-3-ylamino)-[1,2,4]triazolo[1,5-a]pyridin-5-yloxy)phenyl)acrylamide], the IC50 is reported as 0.7 nM. Compound `C=CC(=O)Nc1ccc(F)c(Oc2cccc3nc(Nc4ccc(N5CCOCC5)cc4)nn23)c1` [Example 27, N-(4-fluoro-3-(2-(4-morpholinophenylamino)-[1,2,4]triazolo[1,5-a]pyridin-5-yloxy)phenyl)acrylamide] has an IC50 of 1.3 nM. For `C=CC(=O)Nc1cccc(Oc2cccc3nc(Nc4nc5ccc(Cl)cc5s4)nn23)c1` [Example 22, N-(3-(2-(6-chlorobenzo[d]thiazol-2-ylamino)-[1,2,4]triazolo[1,5-a]pyridin-5-yloxy)phenyl)acrylamide], the IC50 was > 400 nM. With `C=CC(=O)Nc1cccc(Oc2cccc3nc(Nc4ccc(-n5nc(C)cc5C)cc4)nn23)c1` [Example 10, N-(3-(2-(4-(3,5-dimethyl-1H-pyrazol-1-yl)phenylamino)-[1,2,4]triazolo[1,5-a]pyridin-5-yloxy)phenyl)acrylamide] the IC50 was 3.6 nM. `C=CC(=O)Nc1cccc(Oc2cccc3nc(Nc4ccc(N(C)C)cc4)nn23)c1` [Example 6, N-(3-(2-(4-(dimethylamino)phenylamino)-[1,2,4]triazolo[1,5-a]pyridin-5-yloxy)phenyl)acrylamide] showed an IC50 of 2.1 nM. `C=CC(=O)Nc1cccc(Oc2cccc3nc(Nc4ccc(S(=O)(=O)N5CCCCC5)cc4)nn23)c1` [Example 18, N-(3-(2-(4-(piperidin-1-ylsulfonyl)phenylamino)-[1,2,4]triazolo[1,5-a]pyridin-5-yloxy)phenyl)acrylamide] showed an IC50 of 3 nM. `C=CC(=O)Nc1cccc(Oc2cccc3nc(Nc4cnn(C)c4)nn23)c1` [Example 2, N-(3-(2-(1-methyl-1H-pyrazol-4-ylamino)-[1,2,4]triazolo[1,5-a]pyridin-5-yloxy)phenyl)acrylamide] showed an IC50 of 1.1 nM. Work on `C=CC(=O)Nc1ccc(F)c(Oc2cccc3nc(Nc4cnn(C(F)F)c4)nn23)c1` [Example 31, N-(3-(2-(1-(difluoromethyl)-1H-pyrazol-4-ylamino)-[1,2,4]triazolo[1,5-a]pyridin-5-yloxy)-4-fluorophenyl)acrylamide] yielded an IC50 of 18.2 nM. In the case of `C=CC(=O)Nc1cccc(Oc2cccc3nc(Nc4cnc5onc(C)c5c4)nn23)c1` [Example 25, N-(3-(2-(3-methylisoxazolo[5,4-b]pyridin-5-ylamino)-[1,2,4]triazolo[1,5-a]pyridin-5-yloxy)phenyl)acrylamide], the IC50 is reported as 105 nM. `C=CC(=O)Nc1cccc(Oc2cccc3nc(Nc4cccc(-n5nc(C)cc5C)c4)nn23)c1` [Example 9, N-(3-(2-(3-(3,5-dimethyl-1H-pyrazol-1-yl)phenylamino)-[1,2,4]triazolo[1,5-a]pyridin-5-yloxy)phenyl)acrylamide] was tested, and the IC50 was 10.4 nM. `C=CC(=O)Nc1cccc(Oc2cccc3nc(Nc4cccc(Oc5ccccc5)c4)nn23)c1` [Example 5, N-(3-(2-(3-phenoxyphenylamino)-[1,2,4]triazolo[1,5-a]pyridin-5-yloxy)phenyl)acrylamide] was tested, and the IC50 was 35.8 nM. For `C=CC(=O)Nc1cccc(Oc2cccc3nc(Nc4ccc5ncsc5c4)nn23)c1` [Example 3, N-(3-(2-(benzo[d]thiazol-6-ylamino)-[1,2,4]triazolo[1,5-a]pyridin-5-yloxy)phenyl)acrylamide], the IC50 was 2.4 nM. `C=CC(=O)Nc1cccc(Oc2cccc3nc(Nc4cnn(CCN5CCOCC5)c4)nn23)c1` [Example 19, N-(3-(2-(1-(2-morpholinoethyl)-1H-pyrazol-4-ylamino)-[1,2,4]triazolo[1,5-a]pyridin-5-yloxy)phenyl)acrylamide] was tested, and the IC50 was 5.1 nM.
